# Data from ChEMBL document CHEMBL4118096, “Branched Peptides: Acridine and Boronic Acid Derivatives as Antimicrobial Agents” (ACS Med Chem Lett, 2017).
# Where a SMILES comes first, the peptide text is derived from it. The star is where a group is joined. Benzoyl(4-B(OH)2) = O=C(c1ccc(B(O)O)cc1)*; Acridin9yl = c1ccc2c(*)c3ccccc3nc2c1
# Legend:
# Staphylococcus aureus [1] = experiment: Antimicrobial activity against Staphylococcus aureus ATCC 6538 measured on day 4 by broth microdilution method; format: functional; conditions: ATCC 6538, 96 h
# Escherichia coli = experiment: Antimicrobial activity against Escherichia coli C ATCC 13706 measured on day 4 by broth microdilution method; format: functional; conditions: C ATCC 13706, 96 h
# [2] = tested on: Mycolicibacterium smegmatis; experiment: Antimicrobial activity against Mycobacterium smegmatis ATCC 607 measured on day 4 by broth microdilution method; format: functional; conditions: ATCC 607, 96 h
# Candida albicans [3] = experiment: Antifungal activity against Candida albicans measured on day 4 by broth microdilution method; format: functional; conditions: 96 h
# Aspergillus niger = experiment: Antifungal activity against Aspergillus niger measured on day 4 by broth microdilution method; format: functional; conditions: 96 h
# Staphylococcus aureus [4] = experiment: Antimicrobial activity against methicillin-resistant Staphylococcus aureus ATCC 43300 measured on day 4 by broth microdilution method; format: functional; conditions: ATCC 43300, 96 h
# U-87 MG = experiment: Cytotoxicity against human U87 cells assessed as decrease in cell viability at 10 uM after 24 hrs by MTT assay; format: cell-based; conditions: u-87mg atcc
# Saccharomyces cerevisiae = experiment: Induction of membrane lysis activity in Saccharomyces cerevisiae assessed as maltase release at MIC after 60 mins relative to control; format: functional
# Candida albicans [5] = experiment: Induction of membrane lysis in Candida albicans assessed as maltase release at MIC after 60 mins relative to control; format: functional
# Candida albicans [6] = experiment: Antifungal activity against Candida albicans VT1406 in cell suspension after 24 hrs by XXT/PMS dye based assay; format: functional; conditions: VT1406, 24 h
# Candida albicans [7] = experiment: Antibiofilm activity against Candida albicans VT1406 after 24 hrs by XXT/PMS dye based assay; format: functional; conditions: VT1406, 24 h
# Erythrocyte = experiment: Hemolytic activity in sheep RBC measured after 15 mins; format: ADME, cell-based, Ovis aries; conditions: 0.25 h
# [8] = Safety index, ratio of EC10 for hemolytic activity in sheep RBC to MIC for Candida albicans; format: toxicity; conditions: sheep red blood cells
SMILES,MIC (Staphylococcus aureus [1]) [µg/mL],MIC (Escherichia coli) [µg/mL],MIC [2] [µg/mL],MIC (Candida albicans [3]) [µg/mL],MIC (Aspergillus niger) [µg/mL],MIC (Staphylococcus aureus [4]) [µg/mL],Activity (U-87 MG),Activity (Saccharomyces cerevisiae) [%],Activity (Candida albicans [5]) [%],MIC (Candida albicans [6]) [µg/mL],MIC (Candida albicans [7]) [µg/mL],EC10 (Erythrocyte) [µg/mL],selectivity ratio [8]
CC(C)C[C@H](NC(=O)[C@H](CCCCN)NC(=O)[C@H](CCCCN)NC(=O)[C@H](CCCCN)NC(=O)[C@H](CCCCNc1c2ccccc2nc2ccccc12)NC(=O)[C@H](CCCCN)NC(=O)[C@H](CCCCN)NC(=O)[C@@H](N)CCCCNc1c2ccccc2nc2ccccc12)C(=O)N[C@@H](CCCCNC(=O)c1ccc(B(O)O)cc1)C(=O)N[C@@H](Cc1ccc(O)cc1)C(=O)O (H-K(Acridin9yl)KKK(Acridin9yl)KKKLK(Benzoyl(4-B(OH)2))Y-OH),1,4,16,8,32,2,Non-Toxic,–,–,–,–,–,–
NCCCC[C@H](NC(=O)[C@H](CCCCNc1c2ccccc2nc2ccccc12)NC(=O)[C@H](CCCCNc1c2ccccc2nc2ccccc12)NC(=O)[C@H](CCCCN)NC(=O)[C@H](CCCCN)NC(=O)[C@H](CCCCN)NC(=O)[C@H](CCCCN)NC(=O)[C@H](CCCCN)NC(=O)[C@@H](N)CCCCN)C(=O)N[C@@H](Cc1ccc(O)cc1)C(=O)O (H-KKKKKKK(Acridin9yl)K(Acridin9yl)KY-OH),1,8,16,4,62.5,62.5,Non-Toxic,–,–,–,–,–,–
CC(C)C[C@H](NC(=O)[C@H](CCCCN)NC(=O)[C@H](CCCCN)NC(=O)[C@H](CCCCN)NC(=O)[C@H](CCCCN)NC(=O)[C@H](CCCCN)NC(=O)[C@H](CCCCN)NC(=O)[C@@H](N)CCCCN)C(=O)N[C@@H](CCCCNc1c2ccccc2nc2ccccc12)C(=O)N[C@@H](Cc1ccc(O)cc1)C(=O)O (H-KKKKKKKLK(Acridin9yl)Y-OH),16,8,32,2,62.5,–,Non-Toxic,0.7,6,1,1,> 250,> 100
